Like-named read-outs stand apart in the source and are kept apart here.
Tests used:
[1] = system: MCF-7 (ER-positive) human breast cancer cell line; test: MTT cell viability assay, MCF-7 cells; conditions: for IC50: Homo sapiens; for cytotoxic activity: 72 h, versus Ospemifene and Tamoxifen; for anticancer activity in initial screening: 0.5-25 μM, 48 h (FIG. 3)
Method: (§2) An MTT solution was added to each well and incubated for 3 h at 37° C. After 3 h, DMSO was added and the optical density was measured at 570 nm using a 96-well multiscanner (Dynex Technologies, MRX Revelation; Chantilly, Va., USA). Backgrounds were subtracted at 630 nm. IC50 values were calculated by non-linear regression analysis using Prism software.
(§3) The effects of novel triarylethylene derivatives on the cell viability were determined by the MTT uptake method using previously described methods (Kaur et al., 2014, Eur. J. Med. Chem. 86:211-218). Briefly, 3000 cells were incubated with various concentrations of compounds in triplicate in a 96-well plate for 72 h at 37° C. An MTT solution was added to each well and incubated for 3 h at 37° C. After 3 h, DMSO was added and the optical density was measured at 570 nm using a 96-well multiscanner (Dynex Technologies, MRX Revelation; Chantilly, Va., USA). Backgrounds were subtracted at 630 nm. IC50 values were calculated by non-linear regression analysis using Prism software.

[2] = system: MDA-MB-231 (ER-negative) human breast cancer cell line; test: MTT cell viability assay, MDA-MB-231 cells; conditions: for IC50: Homo sapiens; for cytotoxic activity: 72 h, versus Ospemifene and Tamoxifen; for anticancer activity in initial screening: 0.5-25 μM, 48 h (FIG. 3)
Method: as §2, §3

MMP-9 = test: Western blot, MMP-9 expression in breast cancer cells; type: cell-based, human; conditions: MDA-MB-231 and MCF-7 cells, 24 h
Method: (§1) To determine the effect of novel triarylethylene derivatives on proteins involved in metastasis, and adhesion, whole-cell extracts were prepared by subjecting cells to lysis in RIPA buffer supplemented with protease and phosphatase inhibitor cocktails using previously described methods (Pandey et al., 2014, Exp. Hematol. 42:883-896). Lysates were spun at 15,000 rpm for 10 minutes to remove insoluble material. Supernatant were collected and kept at −80° C. Lysates were resolved by SDS-PAGE. After electrophoresis, the proteins were electro-transferred to PVDF membranes, blotted with the relevant antibodies, and detected by enhanced chemo-luminescence reagent.

c-Myc = test: Western blot, c-Myc expression in breast cancer cells; type: cell-based, human; conditions: MDA-MB-231 and MCF-7 cells, 24 h
Method: as §1

caveolin = test: Western blot, caveolin expression in breast cancer cells; type: cell-based, human; conditions: MDA-MB-231 and MCF-7 cells, 24 h
Method: as §1

[3] = system: normal mouse embryonic fibroblast (MEF) cells; test: MTT cell viability assay, normal MEF cells; conditions: 48 h
Method: as §2

[4] = MCF7, 72 h, read-out: MCF-7 IC50
[5] = MDA-MB-231, 72 h, read-out: MDA-MB-231 IC50
[6] = MCF7, 48 h, read-out: MCF-7 (ER positive) IC50
[7] = MCF7, 96 h, read-out: MCF-7 (ER positive) IC50
[8] = MDA-MB-231, 48 h, read-out: MDA-MB-231 (ER− negative) IC50
[9] = MDA-MB-231, 96 h, read-out: MDA-MB-231 (ER− negative) IC50

## COc1ccc(/C(=C(/CCNC(=O)C(=O)N2CCCC2)c2ccccc2)c2ccccc2)cc1 [Compound 24, (Z)—N-(4-(4-Methoxyphenyl)-3,4-diphenylbut-3-enyl)-2-oxo-2-(pyrrolidin-1-yl)acetamide]
[1]; [4]
  IC50: > 50 µM
other
  melting point: 151 to 152 °C
[2]; [5]
  IC50: 48.6 ± 14.5 µM

## COc1ccc(/C(=C(/CCNC(=O)NCc2ccccc2)c2ccccc2)c2ccccc2)cc1 [Compound 16, (Z)-1-Benzyl-3-(4-(4-methoxyphenyl)-3,4-diphenylbut-3-enyl) urea]
[1]; [4]
  IC50: > 50 µM
other
  melting point: 158 to 160 °C
[2]; [5]
  IC50: > 50 µM

## CCN(CC)C(=O)NCC/C(=C(\c1ccccc1)c1ccc(OC)cc1)c1ccccc1 [Compound 19, (Z)-1,1-Diethyl-3-(4-(4-methoxyphenyl)-3,4-diphenylbut-3-enyl)urea]
[1]; [4]
  IC50: > 50 µM
other
  melting point: 159 to 160 °C
[2]; [5]
  IC50: 40.7 ± 12.2 µM

## COc1ccc(/C(=C(/CCN)c2ccccc2)c2ccccc2)cc1 [Compound 13, (Z)-4-(4-Methoxyphenyl)-3,4-diphenylbut-3-en-1-amine]
[1]; MTT, 0.5-100 μM, 48 h (FIG. 28B)
  effectiveness versus Ospemifene and Tamoxifen: more effective
[1]; MTT
  cytotoxic activity: remarkable activity
other
  melting point: 129 to 131 °C
MMP-9
  expression of MMP-9: inhibited the expression
[2]; MTT, 0.5-100 μM, 48 h (FIG. 28A)
  effectiveness versus Ospemifene and Tamoxifen: more effective
[2]; MTT
  cytotoxic activity: remarkable activity
c-Myc
  expression of c-Myc: inhibited the expression
caveolin
  expression of caveolin: inhibited the expression

## [N-]=[N+]=NCC/C(=C(\c1ccccc1)c1ccc(OCCO)cc1)c1ccccc1 [Compound 4, (Z)-2-{4-(4-azido-1,2-diphenylbut-1-enyl)phenoxy}ethanol]
[1]
  anticancer activity in initial screening: activity similar to Ospemifene
[1]; [6]
  IC50: > 100 µM
[1]; [7]
  IC50: > 100 µM
other
  melting point: 126 to 128 °C
[2]; [8]
  IC50: > 100 µM
[2]; [9]
  IC50: > 100 µM

## OCCOc1ccc(/C(=C(/CCCl)c2ccccc2)c2ccccc2)cc1 [Ospemifene, (Z)-2-{4-(4-chloro-1,2-diphenylbut-1-enyl)phenoxy}ethanol, reference compound]
[1]; [6]
  IC50: > 100 µM
[1]; [7]
  IC50: 55 µM
[1]; initial screening, 25 μM
  cell death: ~40%
[2]; [8]
  IC50: > 100 µM
[2]; [9]
  IC50: > 100 µM
[3]
  toxicity to normal MEF cells: non-toxic

## COc1ccc(/C(=C(/CCCl)c2ccccc2)c2ccccc2)cc1 [Compound 11, (Z)-(4-Chloro-1-(4-methoxyphenyl)but-1-ene-1,2-diyl)dibenzene]
other
  melting point: 87 to 89 °C

## CCOC(=O)C(=O)NCC/C(=C(\c1ccccc1)c1ccc(OC)cc1)c1ccccc1 [Compound 15, (Z)-Ethyl-2-(4-(4-methoxyphenyl)-3,4-diphenylbut-3-enylamino)-2-oxoacetate]
[1]; [4]
  IC50: > 50 µM
[2]; [5]
  IC50: > 50 µM

## CS(=O)(=O)OCCOc1ccc(/C(=C(/CCCl)c2ccccc2)c2ccccc2)cc1 [Compound 2, (Z)-2-{4-(4-chloro-1,2-diphenylbut-1-enyl}phenoxy) ethyl methanesulfonate]
[1]
  anticancer activity in initial screening: inactive
other
  melting point: 84 to 86 °C
[2]
  anticancer activity in initial screening: inactive

## COc1ccc(/C(=C(/CCNC(=O)C(=O)N2CCCCC2)c2ccccc2)c2ccccc2)cc1 [Compound 26, (Z)—N-(4-(4-Methoxyphenyl)-3,4-diphenylbut-3-enyl)-2-oxo-2-(piperidin-1-yl)acetamide]
[1]; [4]
  IC50: > 50 µM
other
  melting point: 125 to 127 °C
[2]; [5]
  IC50: > 50 µM

## O=C(NCC/C(=C(\c1ccccc1)c1ccc(OCCO)cc1)c1ccccc1)Oc1ccccc1 [Compound 8, (Z)-Phenyl 4-{4-(2-hydroxyethoxy)phenyl}-3,4-diphenylbut-3-enylcarbamate]
[1]
  anticancer activity in initial screening: more potent than Ospemifene
[1]; [6]
  IC50: 76 µM
[1]; [7]
  IC50: 50 µM
other
  melting point: 121 to 123 °C
[2]
  anticancer activity in initial screening: more potent than Ospemifene
[2]; [8]
  IC50: > 100 µM
[2]; [9]
  IC50: 62.3 µM

## COc1ccc(/C(=C(/CCNC(=O)C(=O)NCc2ccccc2)c2ccccc2)c2ccccc2)cc1 [Compound 22, (Z)—N1-Benzyl-N2-(4-(4-methoxyphenyl)-3,4-diphenylbut-3-enyl)oxalamide]
[1]; [4]
  IC50: > 50 µM
other
  melting point: 169 to 172 °C
MMP-9
  expression of MMP-9: inhibited the expression
[2]; [5]
  IC50: 11.5 ± 3.8 µM
[2]; MTT
  cytotoxic activity: selectively cytotoxic
c-Myc
  expression of c-Myc: inhibited the expression
caveolin
  expression of caveolin: did not inhibit the expression

## COc1ccc(/C(=C(/CCN=[N+]=[N-])c2ccccc2)c2ccccc2)cc1 [Compound 12, (Z)-(4-Azido-1-(4-methoxyphenyl)but-1-ene-1,2-diyl)dibenzene]
other
  melting point: 126 to 128 °C

## COc1ccc(/C(=C(/CCNC(=O)N2CCOCC2)c2ccccc2)c2ccccc2)cc1 [Compound 18, (Z)—N-(4-(4-Methoxyphenyl)-3,4-diphenylbut-3-enyl)morpholine-4-carboxamide]
[1]; [4]
  IC50: > 50 µM
other
  melting point: 139 to 141 °C
[2]; [5]
  IC50: 42.8 ± 12.2 µM

## COc1ccc(/C(=C(/CCNC(=O)NC2CCCCC2)c2ccccc2)c2ccccc2)cc1 [Compound 17, (Z)-1-Cyclohexyl-3-(4-(4-methoxyphenyl)-3,4-diphenylbut-3-enyl) urea]
[1]; [4]
  IC50: 37.2 ± 13.7 µM
other
  melting point: 168 to 170 °C
[2]; [5]
  IC50: > 50 µM

## (Z)-Ethyl-2-(4-(4-methoxyphenyl)-3,4-diphenylbut-3-enylamino)-2-oxoacetate [Compound 15]
[1]; MTT
  cytotoxic activity: much more effective than the standards
MMP-9
  expression of MMP-9: modulated the expression
[2]; MTT
  cytotoxic activity: much more effective than the standards

## [N-]=[N+]=NCCOc1ccc(/C(=C(/CCN=[N+]=[N-])c2ccccc2)c2ccccc2)cc1 [Compound 5, (Z)-[4-azido-1-{4-(2-azidoethoxy)phenyl}but-1-ene-1,2-diyl]dibenzene]
[1]
  anticancer activity in initial screening: ineffective
[2]
  anticancer activity in initial screening: ineffective

## COc1ccc(/C(=C(/CCNC(=O)N2CCCCC2)c2ccccc2)c2ccccc2)cc1 [Compound 20, (Z)—N-(4-(4-Methoxyphenyl)-3,4-diphenylbut-3-enyl)piperidine-1-carboxamide]
[1]; [4]
  IC50: > 50 µM
other
  melting point: 197 to 198 °C
[2]; [5]
  IC50: > 50 µM

## COc1ccc(/C(=C(/CCNC(=O)C(=O)NC2CCCCC2)c2ccccc2)c2ccccc2)cc1 [Compound 23, (Z)—N1-Cyclohexyl-N2-(4-(4-methoxyphenyl)-3,4-diphenylbut-3-enyl)oxalamide]
[1]; [4]
  IC50: 12.1 ± 4.5 µM
[1]; MTT
  cytotoxic activity: remarkable activity
other
  melting point: 198 to 199 °C
MMP-9
  expression of MMP-9: inhibited the expression
[2]; [5]
  IC50: 12.2 ± 5.3 µM
[2]; MTT
  cytotoxic activity: remarkable activity
c-Myc
  expression of c-Myc: inhibited the expression
caveolin
  expression of caveolin: did not inhibit the expression

## [N-]=[N+]=NCCOc1ccc(/C(=C(/CCCl)c2ccccc2)c2ccccc2)cc1 [Compound 3, (Z)-[1-{4-(2-azidoethoxy)phenyl}-4-chlorobut-1-ene-1,2-diyl]dibenzene]
[1]
  anticancer activity in initial screening: inactive
other
  melting point: 88 to 90 °C
[2]
  anticancer activity in initial screening: inactive

## COc1ccc(/C(=C(/CCNC(=O)N2CCCC2)c2ccccc2)c2ccccc2)cc1 [Compound 21, (Z)—N-(4-(4-Methoxyphenyl)-3,4-diphenylbut-3-enyl)pyrrolidine-1-carboxamide]
[1]; [4]
  IC50: > 50 µM
other
  melting point: 194.2 to 195.4 °C
[2]; [5]
  IC50: > 50 µM

## (Z)-Phenyl-4-(4-methoxyphenyl)-3,4-diphenylbut-3-enylcarbamate [Compound 14]
[1]; MTT
  cytotoxic activity: much more effective than the standards
MMP-9
  expression of MMP-9: modulated the expression
[2]; MTT
  cytotoxic activity: much more effective than the standards

## COc1ccc(/C(=C(/CCNC(=O)C(=O)N2CCOCC2)c2ccccc2)c2ccccc2)cc1 [Compound 25, (Z)—N-(4-(4-Methoxyphenyl)-3,4-diphenylbut-3-enyl)-2-morpholino-2-oxoacetamide]
[1]; [4]
  IC50: 43.4 ± 7.5 µM
other
  melting point: 118.4 to 119.3 °C
[2]; [5]
  IC50: 20 ± 9.8 µM
[2]; MTT
  cytotoxic activity: good activity

Reference: patent US20170217914A1, “Novel Triarylethylene Compounds and Methods Using Same” (The Penn State Research Foundation, priority 2014, published 2017)
